Assay results as given in patent publication US11426397B2, “Piperidinyl- and piperazinyl-substituted heteroaromatic carboxamides as modulators of GPR6” (TAKEDA PHARMACEUTICAL COMPANY LIMITED, priority 2017, dated 2022).

Molecular target: T1, GPR6 receptor expressed in CHO-K1 cells (Homo sapiens, UniProt P46095)
T1 construct: expressed in transfected cells
Assay: In vitro inhibition of cAMP (EC50), cell-based HTRF cAMP assay
Conditions: inhibition of constitutive cAMP activity of GPR6 in CHO-K1 cells
How it was run: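 Cellular cAMP measured by Lance Ultra HTRF (Eu-cAMP tracer, ULight anti-cAMP), with EC50 fitted by four-parameter logistic. Test compounds sat on cells 45 min, 37 °C, in pH 7.4 Ringer's with 300 μM IBMX and 0.5% BSA; GPR6 in CHO-K1 induced beforehand by doxycycline, 2 μg/mL, 20 h.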

T1 sequence (P46095 whole entry): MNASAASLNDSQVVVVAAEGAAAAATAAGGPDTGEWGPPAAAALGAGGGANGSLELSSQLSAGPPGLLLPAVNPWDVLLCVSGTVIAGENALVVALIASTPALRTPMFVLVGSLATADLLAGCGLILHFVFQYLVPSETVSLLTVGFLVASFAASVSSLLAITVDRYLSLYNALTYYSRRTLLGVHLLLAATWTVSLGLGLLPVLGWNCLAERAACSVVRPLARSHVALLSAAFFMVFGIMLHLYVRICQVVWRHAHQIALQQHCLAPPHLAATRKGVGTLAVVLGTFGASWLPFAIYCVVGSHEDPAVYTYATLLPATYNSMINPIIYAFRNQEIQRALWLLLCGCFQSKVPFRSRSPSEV

Cc1ccc(C(=O)Nc2cc(C#N)ccc2N2CCC(Oc3ccc(F)cc3F)CC2)c(=O)n1C [Example 79, N-(5-cyano-2-(4-(2,4-difluorophenoxy)piperidin-1-yl)phenyl)-1,6-dimethyl-2-oxo-1,2-dihydropyridine-3-carboxamide]
pEC50, in vitro inhibition of cAMP: 6.8

N#Cc1ccc(N2CCC(Oc3ccc(F)cc3F)CC2)c(NC(=O)c2ncc(F)cc2F)c1 [Example 49, N-(5-cyano-2-(4-(2,4-difluorophenoxy)piperidin-1-yl)phenyl)-3,5-difluoropicolinamide]
pEC50, in vitro inhibition of cAMP: 6.5

COc1ncccc1C(=O)Nc1cnccc1N1CCC(Oc2ccc(F)cc2F)CC1 [Example 264]
pEC50, in vitro inhibition of cAMP: 6.8

COc1ncccc1C(=O)Nc1cnc(C(=O)N(C)C)nc1N1CCC(Oc2ccc(F)cc2F)CC1 [Example 281, 4-(4-(2,4-difluorophenoxy)piperidin-1-yl)-5-(2-methoxynicotinamido)-N,N-dimethylpyrimidine-2-carboxamide]
pEC50, in vitro inhibition of cAMP: 6.4

N#Cc1cnc(N2CCC(Cc3ccccc3)CC2)c(NC(=O)c2ccccn2)c1 [Example 67, N-(2-(4-benzylpiperidin-1-yl)-5-cyanopyridin-3-yl)picolinamide]
EC50 (read-out: pEC50, in vitro inhibition of cAMP (converted)): 100 nM

CC(=O)n1ncc2ccc(NC(=O)c3ccccn3)c(N3CCC(Oc4ccc(F)cc4F)CC3)c21 [Example 76, N-(1-acetyl-7-(4-(2,4-difluorophenoxy)piperidin-1-yl)-1H-indazol-6-yl)picolinamide]
pEC50, in vitro inhibition of cAMP: <5.7

[2H]C([2H])([2H])N(C(=O)c1cc(N2CCC(Oc3ccc(F)cc3F)CC2)c(NC(=O)c2cccnc2OC)cn1)C([2H])([2H])[2H] [Example 22, 4-(4-(2,4-difluorophenoxy)piperidin-1-yl)-5-(2-methoxynicotinamido)-N,N-bis(methyl-d3)picolinamide]
pEC50, in vitro inhibition of cAMP: 7.1

COc1ncccc1C(=O)Nc1cc(C#N)ccc1N1CCN(C(=O)c2ccc(F)cc2F)CC1 [Example 93, N-(5-cyano-2-(4-(2,4-difluorobenzoyl)piperazin-1-yl)phenyl)-2-methoxynicotinamide]
pEC50, in vitro inhibition of cAMP: 6.3

COc1cc(Cl)c(Cl)cc1C(=O)Nc1cc(C#N)ccc1N1CCC(Oc2ccc(F)cc2F)CC1 [Example 190, 4,5-dichloro-N-(5-cyano-2-(4-(2,4-difluorophenoxy)piperidin-1-yl)phenyl)-2-methoxybenzamide]
pEC50, in vitro inhibition of cAMP: 6.5

N#Cc1ccc(N2CCC(Oc3ccc(F)cc3F)CC2)c(NC(=O)c2cc3cccn3cn2)c1 [Example 48, N-(5-cyano-2-(4-(2,4-difluorophenoxy)piperidin-1-yl)phenyl)pyrrolo[1,2-c]pyrimidine-3-carboxamide]
pEC50, in vitro inhibition of cAMP: 6.8

COc1ncccc1C(=O)Nc1cc(C#N)c(C(=O)N(C)C)cc1N1CCC(Oc2ccc(F)cc2F)CC1 [Example 273]
pEC50, in vitro inhibition of cAMP: 7.3

Cc1ccc(C(=O)Nc2cc(C#N)ccc2N2CCC(Oc3ccc(F)cc3F)CC2)nn1 [Example 146, N-(5-cyano-2-(4-(2,4-difluorophenoxy)piperidin-1-yl)phenyl)-6-methylpyridazine-3-carboxamide]
pEC50, in vitro inhibition of cAMP: 6.6

COc1nc(C)ccc1C(=O)Nc1cc(C#N)c(F)cc1N1CCC(Oc2ccc(F)cc2F)CC1 [Example 39, N-(5-cyano-2-(4-(2,4-difluorophenoxy)piperidin-1-yl)-4-fluorphenyl)-2-methoxy-6-methylnicotinamide]
pEC50, in vitro inhibition of cAMP: 7.3

Cn1cccc(C(=O)Nc2cc(C#N)cnc2N2CCC(Oc3ccc(F)cc3F)CC2)c1=O [Example 58, N-(5-cyano-2-(4-(2,4-difluorophenoxy)piperidin-1-yl)pyridin-3-yl)-1-methyl-2-oxo-1,2-dihydropyridine-3-carboxamide]
pEC50, in vitro inhibition of cAMP: 7.4

N#Cc1cnc(N2CCC(Oc3ccc(F)cc3F)CC2)c(NC(=O)c2cc(Cl)ccn2)c1 [Example 55, 4-chloro-V-(5-cyano-2-(4-(2,4-difluorophenoxy)piperidin-1-yl)pyridin-3-yl)picolinamide]
pEC50, in vitro inhibition of cAMP: 7.3

COc1nc(Cl)ccc1C(=O)Nc1cc(C#N)ccc1N1CCC(Oc2ccc(F)cc2F)CC1 [Example 191, 6-chloro-N-(5-cyano-2-(4-(2,4-difluorophenoxy)piperidin-1-yl)phenyl)-2-methoxynicotinamide]
pEC50, in vitro inhibition of cAMP: 6.8

COc1ncc(C)cc1C(=O)Nc1cc(C(=O)N(C)C)cnc1N1CCC(Oc2ccc(F)cc2F)CC1 [Example 147, 6-(4-(2,4-difluorophenoxy)piperidin-1-yl)-5-(2-methoxy-5-methylnicotinamido)-N,N-dimethylnicotinamide]
pEC50, in vitro inhibition of cAMP: 6.9

Cc1csc(C(=O)Nc2cc(C#N)ccc2N2CCC(Oc3ccc(F)cc3F)CC2)n1 [Example 51, N-(5-cyano-2-(4-(2,4-difluorophenoxy)piperidin-1-yl)phenyl)-4-methylthiazole-2-carboxamide]
pEC50, in vitro inhibition of cAMP: 6.8

COc1ccc(F)c(F)c1C(=O)Nc1cc(C#N)ccc1N1CCC(Oc2ccc(F)cc2F)CC1 [Example 192, N-(5-cyano-2-(4-(2,4-difluorophenoxy)piperidin-1-yl)phenyl)-2,3-difluoro-6-methoxybenzamide]
pEC50, in vitro inhibition of cAMP: 6.3

COc1ccc(F)cc1C(=O)Nc1cc(C#N)ccc1N1CCC(Oc2ccc(F)cc2F)CC1 [Example 210, N-(5-cyano-2-(4-(2,4-difluorophenoxy)piperidin-1-yl)phenyl)-5-fluoro-2-methoxybenzamide]
pEC50, in vitro inhibition of cAMP: 7.3

N#Cc1ccc(N2CCC(Oc3ccc(F)cc3F)CC2)c(NC(=O)c2cnon2)c1 [Example 139, N-(5-cyano-2-(4-(2,4-difluorophenoxy)piperidin-1-yl)phenyl)-1,2,5-oxadiazole-3-carboxamide]
pEC50, in vitro inhibition of cAMP: <4.5

COc1cccc(OC)c1C(=O)Nc1cc(C#N)ccc1N1CCC(Oc2ccc(F)cc2F)CC1 [Example 238, N-(5-cyano-2-(4-(2,4-difluorophenoxy)piperidin-1-yl)phenyl)-2,6-dimethoxybenzamide]
pEC50, in vitro inhibition of cAMP: 5.0

Cc1cncc(C(=O)Nc2cc(C#N)ccc2N2CCC(Oc3ccc(F)cc3F)CC2)n1 [Example 130, N-(5-cyano-2-(4-(2,4-difluorophenoxy)piperidin-1-yl)phenyl)-6-methylpyrazine-2-carboxamide]
pEC50, in vitro inhibition of cAMP: 7.1

COc1c(C(=O)Nc2cc(C#N)ccc2N2CCC(Oc3ccc(F)cc3F)CC2)nnn1Cc1ccccc1 [Example 220, 1-benzyl-N-(5-cyano-2-(4-(2,4-difluorophenoxy)piperidin-1-yl)phenyl)-5-methoxy-1H-1,2,3-triazole-4-carboxamide]
pEC50, in vitro inhibition of cAMP: 5.8

COCCCn1cccc(C(=O)Nc2cc(C#N)ccc2N2CCC(Oc3ccc(F)cc3F)CC2)c1=O [Example 199]
pEC50, in vitro inhibition of cAMP: 5.9

COc1ncccc1C(=O)Nc1cc(C#N)ccc1N1CCN(Cc2ncc(F)cc2F)CC1 [Example 290]
pEC50, in vitro inhibition of cAMP: 6.5

COc1c(C(=O)Nc2cc(C#N)ccc2N2CCC(Oc3ccc(F)cc3F)CC2)nnn1Cc1ccccc1Cl [Example 221, 1-(2-chlorobenzyl)-N-(5-cyano-2-(4-(2,4-difluorophenoxy)piperidin-1-yl)phenyl)-5-methoxy-1H-1,2,3-triazole-4-carboxamide]
pEC50, in vitro inhibition of cAMP: <4.5

COc1nn(C)cc1C(=O)Nc1cc(C#N)cnc1N1CCN(Cc2c(F)cc(F)cc2F)CC1 [Example 173, N-(5-cyano-2-(4-(2,4,6-trifluorobenzyl)piperazin-1-yl)pyridin-3-yl)-3-methoxy-1-methyl-1H-pyrazole-4-carboxamide]
pEC50, in vitro inhibition of cAMP: 6.8

COc1ccc(C)cc1C(=O)Nc1cc(C#N)ccc1N1CCC(Oc2ccc(F)cc2F)CC1 [Example 237, N-(5-cyano-2-(4-(2,4-difluorophenoxy)piperidin-1-yl)phenyl)-2-methoxy-5-methylbenzamide]
pEC50, in vitro inhibition of cAMP: 6.7

CCOc1ncccc1C(=O)Nc1cc(C#N)ccc1N1CCC(Oc2ccc(F)cc2F)CC1 [Example 28, N-(5-cyano-2-(4-(2,4-difluorophenoxy)piperidin-1-yl)phenyl)-2-ethoxynicotinamide]
pEC50, in vitro inhibition of cAMP: 6.6

Cc1cc(C)n(C)c(=O)c1C(=O)Nc1cc(C#N)ccc1N1CCC(Oc2ccc(F)cc2F)CC1 [Example 176, N-(5-cyano-2-(4-(2,4-difluorophenoxy)piperidin-1-yl)phenyl)-1,4,6-trimethyl-2-oxo-1,2-dihydropyridine-3-carboxamide]
pEC50, in vitro inhibition of cAMP: 6.5

COc1cccc(C(=O)Nc2cc(C#N)ccc2N2CCC(Oc3ccc(F)cc3F)CC2)c1OC [Example 230]
pEC50, in vitro inhibition of cAMP: 7.1

COc1cnc(C(=O)Nc2cnc(C)cc2N2CCC(Oc3ccc(F)cc3F)CC2)cn1 [Example 142, N-(4-(4-(2,4-difluorophenoxy)piperidin-1-yl)-6-methylpyridin-3-yl)-5-methoxypyrazine-2-carboxamide]
pEC50, in vitro inhibition of cAMP: 6.2

N#Cc1ccc(N2CCC(Oc3ccc(F)cc3F)CC2)c(NC(=O)c2cccnc2OC(F)F)c1 [Example 276, N-(5-cyano-2-(4-(2,4-difluorophenoxy)piperidin-1-yl)phenyl)-2-(difluoromethoxy)nicotinamide]
pEC50, in vitro inhibition of cAMP: 7.3
